Assay results reported in ChEMBL document CHEMBL1201862, “PubChem BioAssay data set” (2004).
Active and inactive are the calls of the source. Cut-off read from the data, not from the text of the source, for most assays here: actives have a measured IC50 and inactives only a lower limit.

Legend:
[1] = target: T1, Sentrin-specific protease 8 (Homo sapiens, UniProt Q96LD8); test: inhibition of sentrin protease 8 – biochemical, luminescence, set 2, SAR follow-up (AID 588601); assay type: functional
T1 sequence (Q96LD8 whole entry): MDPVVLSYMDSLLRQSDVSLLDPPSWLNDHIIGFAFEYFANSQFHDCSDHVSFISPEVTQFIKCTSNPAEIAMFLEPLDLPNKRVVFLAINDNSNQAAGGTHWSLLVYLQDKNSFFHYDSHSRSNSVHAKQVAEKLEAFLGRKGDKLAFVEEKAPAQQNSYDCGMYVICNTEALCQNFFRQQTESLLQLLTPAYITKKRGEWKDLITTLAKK

Caspase-3 [2] = target: T2, Caspase-3 (Homo sapiens, UniProt P42574); test: inhibition of recombinant caspase-3 activity – biochemical, luminescence, set 2, selectivity assay for SENP protease inhibitor project, SAR follow-up (AID 588599); assay type: functional
T2 sequence (P42574 whole entry): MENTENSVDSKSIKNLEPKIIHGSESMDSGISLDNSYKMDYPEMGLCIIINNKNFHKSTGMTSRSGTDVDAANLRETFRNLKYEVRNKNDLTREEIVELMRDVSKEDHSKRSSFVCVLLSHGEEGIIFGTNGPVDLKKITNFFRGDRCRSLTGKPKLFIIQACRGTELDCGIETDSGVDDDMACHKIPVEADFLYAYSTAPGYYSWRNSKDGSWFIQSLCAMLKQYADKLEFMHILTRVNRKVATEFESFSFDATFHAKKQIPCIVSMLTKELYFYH

[3] = target: T3, Sentrin-specific protease 7 (Homo sapiens, UniProt Q9BQF6); test: inhibition of human SENP7 cleavage activity – biochemical, luminescence, set 2, SAR follow-up (AID 588600); assay type: functional
T3 sequence (Q9BQF6 whole entry): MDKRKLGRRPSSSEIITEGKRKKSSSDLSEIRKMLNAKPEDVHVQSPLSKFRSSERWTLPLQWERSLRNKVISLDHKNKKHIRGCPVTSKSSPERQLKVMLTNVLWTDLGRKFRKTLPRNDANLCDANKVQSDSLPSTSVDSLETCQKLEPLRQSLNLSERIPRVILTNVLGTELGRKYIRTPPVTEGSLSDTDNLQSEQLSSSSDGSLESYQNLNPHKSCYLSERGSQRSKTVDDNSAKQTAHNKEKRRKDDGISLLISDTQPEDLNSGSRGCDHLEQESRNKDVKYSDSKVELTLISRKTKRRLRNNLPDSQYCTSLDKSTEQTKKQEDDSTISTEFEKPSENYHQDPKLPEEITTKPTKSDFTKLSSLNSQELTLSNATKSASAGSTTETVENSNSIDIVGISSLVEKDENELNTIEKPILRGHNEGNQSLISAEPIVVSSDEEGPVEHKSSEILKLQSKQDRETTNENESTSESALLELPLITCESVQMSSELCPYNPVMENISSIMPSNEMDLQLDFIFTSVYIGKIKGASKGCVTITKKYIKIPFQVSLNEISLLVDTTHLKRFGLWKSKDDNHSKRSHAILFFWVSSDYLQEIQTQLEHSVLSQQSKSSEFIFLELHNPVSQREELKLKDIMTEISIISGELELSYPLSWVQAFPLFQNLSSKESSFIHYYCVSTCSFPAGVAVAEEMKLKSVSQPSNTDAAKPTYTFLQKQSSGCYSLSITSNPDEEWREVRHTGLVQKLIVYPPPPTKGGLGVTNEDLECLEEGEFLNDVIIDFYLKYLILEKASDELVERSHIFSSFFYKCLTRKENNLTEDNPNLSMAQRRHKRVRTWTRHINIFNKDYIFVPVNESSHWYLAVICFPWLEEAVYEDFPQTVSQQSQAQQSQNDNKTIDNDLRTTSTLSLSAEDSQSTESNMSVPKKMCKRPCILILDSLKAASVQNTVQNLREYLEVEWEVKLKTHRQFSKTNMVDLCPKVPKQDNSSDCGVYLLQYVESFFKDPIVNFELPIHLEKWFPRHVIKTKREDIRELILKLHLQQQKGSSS

[4] = target: T4, Sentrin-specific protease 6 (Homo sapiens, UniProt Q9GZR1); test: inhibition of human SENP6 catalytic domain – biochemical, luminescence, set 2, SAR follow-up (AID 588598); assay type: functional
T4 sequence (Q9GZR1 whole entry): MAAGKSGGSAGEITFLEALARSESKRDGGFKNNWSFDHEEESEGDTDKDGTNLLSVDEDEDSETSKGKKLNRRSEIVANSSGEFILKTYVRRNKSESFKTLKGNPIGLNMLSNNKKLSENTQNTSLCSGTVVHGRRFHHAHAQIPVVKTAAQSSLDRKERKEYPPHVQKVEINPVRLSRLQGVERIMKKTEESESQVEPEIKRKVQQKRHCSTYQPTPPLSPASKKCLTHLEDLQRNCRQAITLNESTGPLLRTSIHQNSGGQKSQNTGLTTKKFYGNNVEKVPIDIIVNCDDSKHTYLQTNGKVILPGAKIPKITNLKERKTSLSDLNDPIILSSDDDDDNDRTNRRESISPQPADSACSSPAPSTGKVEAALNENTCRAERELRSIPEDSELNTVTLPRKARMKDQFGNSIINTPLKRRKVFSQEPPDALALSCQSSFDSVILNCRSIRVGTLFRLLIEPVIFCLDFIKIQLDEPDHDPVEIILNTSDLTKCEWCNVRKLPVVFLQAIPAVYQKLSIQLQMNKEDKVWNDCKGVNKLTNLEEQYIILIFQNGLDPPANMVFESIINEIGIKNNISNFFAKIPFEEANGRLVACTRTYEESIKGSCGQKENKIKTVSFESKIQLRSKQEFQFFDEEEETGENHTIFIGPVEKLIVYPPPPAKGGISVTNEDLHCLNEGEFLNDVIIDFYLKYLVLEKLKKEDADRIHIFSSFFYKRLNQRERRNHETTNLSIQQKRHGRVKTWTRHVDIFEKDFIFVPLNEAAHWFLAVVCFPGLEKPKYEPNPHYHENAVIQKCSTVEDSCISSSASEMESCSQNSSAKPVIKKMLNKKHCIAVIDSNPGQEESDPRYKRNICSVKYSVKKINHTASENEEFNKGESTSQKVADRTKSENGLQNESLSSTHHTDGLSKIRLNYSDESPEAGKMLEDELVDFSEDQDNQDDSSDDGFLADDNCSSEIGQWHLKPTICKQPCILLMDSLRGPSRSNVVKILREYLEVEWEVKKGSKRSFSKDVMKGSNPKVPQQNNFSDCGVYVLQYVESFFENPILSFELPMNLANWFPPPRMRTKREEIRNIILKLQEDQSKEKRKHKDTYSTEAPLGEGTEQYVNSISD

Caspase-3 [5] = target: T2, Caspase-3; test: SAR Analysis of small molecule inhibitors of Sentrin-specific proteases (SENPs) using a Caspase-3 Selectivity assay. [Related pubchem assays (depositor defined):AID2540, AID2599, AID434973, AID489001]; assay type: functional
[6] = target: T3, Sentrin-specific protease 7; test: inhibition of human SENP7 cleavage activity – biochemical, luminescence, SAR follow-up (AID 504497); assay type: functional
[7] = target: T1, Sentrin-specific protease 8; test: inhibition of human SENP8 cleavage activity – biochemical, luminescence, SAR follow-up (AID 504501); assay type: functional
[8] = target: T4, Sentrin-specific protease 6; test: SAR Analysis of small molecule inhibitors of Sentrin-specific protease 6 (SENP6) using a Luminescent assay. [Related pubchem assays (depositor defined):AID2582, AID2599]; assay type: functional
HEK293 [9] = test: optical interference in Abeta FP readout, dose response, artefact control for IDE activator project, biochemical, fluorescence polarization (AID 588442); assay type: functional, cell-based; conditions: Homo sapiens
Insulin-degrading enzyme [10] = target: T5, Insulin-degrading enzyme (Homo sapiens, UniProt P14735); test: cellular IDE activation of Abeta substrate cleavage – fluorescence polarization, HEK cells, dose response (AID 588439); assay type: functional, cell-based
T5 sequence (P14735 whole entry): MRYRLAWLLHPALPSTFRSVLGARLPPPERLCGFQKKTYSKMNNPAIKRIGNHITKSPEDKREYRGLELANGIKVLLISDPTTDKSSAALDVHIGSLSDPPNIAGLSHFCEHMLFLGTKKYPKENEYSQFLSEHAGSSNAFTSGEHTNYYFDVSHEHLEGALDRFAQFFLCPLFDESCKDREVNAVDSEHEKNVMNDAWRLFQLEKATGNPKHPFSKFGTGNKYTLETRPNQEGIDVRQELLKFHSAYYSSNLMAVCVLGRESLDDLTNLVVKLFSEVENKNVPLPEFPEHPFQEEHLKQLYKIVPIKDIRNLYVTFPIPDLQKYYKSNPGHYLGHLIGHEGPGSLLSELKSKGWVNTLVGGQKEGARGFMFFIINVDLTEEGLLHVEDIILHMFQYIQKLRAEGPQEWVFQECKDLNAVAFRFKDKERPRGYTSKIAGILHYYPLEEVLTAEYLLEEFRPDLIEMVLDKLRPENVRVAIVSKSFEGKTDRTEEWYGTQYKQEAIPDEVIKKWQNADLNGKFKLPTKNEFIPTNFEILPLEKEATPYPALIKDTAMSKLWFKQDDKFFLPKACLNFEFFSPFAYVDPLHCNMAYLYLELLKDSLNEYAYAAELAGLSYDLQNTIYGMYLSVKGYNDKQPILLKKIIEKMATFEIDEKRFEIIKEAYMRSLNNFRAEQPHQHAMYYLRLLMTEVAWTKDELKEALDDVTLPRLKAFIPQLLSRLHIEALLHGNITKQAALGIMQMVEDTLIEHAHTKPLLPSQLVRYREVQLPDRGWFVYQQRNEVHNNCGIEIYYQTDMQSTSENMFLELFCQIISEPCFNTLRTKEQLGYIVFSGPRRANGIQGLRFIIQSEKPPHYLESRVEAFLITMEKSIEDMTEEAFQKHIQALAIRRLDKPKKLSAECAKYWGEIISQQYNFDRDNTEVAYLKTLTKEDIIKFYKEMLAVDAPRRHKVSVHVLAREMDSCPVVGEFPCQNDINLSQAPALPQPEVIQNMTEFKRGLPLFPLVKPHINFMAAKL

HEK293 [11] = test: membrane integrity loss in HEK cells – cell-based, fluorescence, cytotoxicity control for IDE activator project, dose response (AID 588440); assay type: functional; conditions: Homo sapiens;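 note: cytotoxicity by LDH release measuring loss of membrane integrity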
Insulin-degrading enzyme [12] = target: T5, Insulin-degrading enzyme; test: recombinant IDE activation, cell-free – biochemical, fluorescence polarization, counter-screen for IDE activator project, dose response (AID 588681)

Cc1sc2ncnc(N3CCC(C(=O)Nc4nc5c(F)cc(F)cc5s4)CC3)c2c1C
inactive: IC50 [1] > 99 µM | IC50 (Caspase-3 [2]) > 99 µM | IC50 [3] > 99 µM | IC50 [4] > 99 µM

CCS(=O)(=O)c1cccc(C(=O)Nc2nc3ccc(Br)cc3s2)c1
inactive: IC50 (Caspase-3 [5]) > 99 µM | IC50 [6] > 99 µM | IC50 [7] > 99 µM | IC50 [8] > 99 µM

O=C(CN1CCN(CN2C(=O)NC3(CCCCCC3)C2=O)CC1)Nc1ccc(F)cc1
inactive: EC50 (HEK293 [9]) > 55.9 µM | EC50 (Insulin-degrading enzyme [10]) > 54.7 µM | IC50 (HEK293 [11]) > 89.2 µM | EC50 (Insulin-degrading enzyme [12]) > 54.7 µM

N#Cc1c(NC(=O)c2cc3ncc(Br)cn3n2)sc2c1CCCC2
inactive: IC50 (Caspase-3 [5]) > 99 µM | IC50 [6] > 99 µM | IC50 [7] > 99 µM | IC50 [8] > 99 µM

Cc1[nH]c2ccccc2c1C(=O)C(=O)NCc1cccnc1
inactive: IC50 [1] > 99 µM | IC50 (Caspase-3 [2]) > 99 µM | IC50 [3] > 99 µM | IC50 [4] > 99 µM
